Experimental data: US10844074B2, “Heterocycle compounds and uses thereof” (ZHEJIANG JIANFENG-YIEN BIOTECHNOLOGY CO., LTD., priority 2015, dated 2020)

Key:
EGFR T790M = EGFR T790M (Homo sapiens, UniProt P00533, T790M); experiment: EGFR Enzyme Assay; type: biochemical; conditions: 1 uM compound, read-out: T790M (% inh @ 1 uM)
Description: The following TABLE III lists compounds representative of the invention and their activity in EGFR assays. In these assays, the following grading was used: A: >50% @1 μM; B: <50% @ 1 μM.

BTK = BTK (Homo sapiens, UniProt Q06187); experiment: BTK Enzyme Assay; type: biochemical; conditions: 1 uM compound; read-out: BTK (% inh @ 1 uM)
Description: The following TABLE II lists compounds representative of the invention and their activity in BTK assays. In these assays, the following grading was used: A: >30% inhibition @1 μM; B: <30% inhibition @1 μM.

EGFR T790M, sequence (P00533 25-1210 T790M): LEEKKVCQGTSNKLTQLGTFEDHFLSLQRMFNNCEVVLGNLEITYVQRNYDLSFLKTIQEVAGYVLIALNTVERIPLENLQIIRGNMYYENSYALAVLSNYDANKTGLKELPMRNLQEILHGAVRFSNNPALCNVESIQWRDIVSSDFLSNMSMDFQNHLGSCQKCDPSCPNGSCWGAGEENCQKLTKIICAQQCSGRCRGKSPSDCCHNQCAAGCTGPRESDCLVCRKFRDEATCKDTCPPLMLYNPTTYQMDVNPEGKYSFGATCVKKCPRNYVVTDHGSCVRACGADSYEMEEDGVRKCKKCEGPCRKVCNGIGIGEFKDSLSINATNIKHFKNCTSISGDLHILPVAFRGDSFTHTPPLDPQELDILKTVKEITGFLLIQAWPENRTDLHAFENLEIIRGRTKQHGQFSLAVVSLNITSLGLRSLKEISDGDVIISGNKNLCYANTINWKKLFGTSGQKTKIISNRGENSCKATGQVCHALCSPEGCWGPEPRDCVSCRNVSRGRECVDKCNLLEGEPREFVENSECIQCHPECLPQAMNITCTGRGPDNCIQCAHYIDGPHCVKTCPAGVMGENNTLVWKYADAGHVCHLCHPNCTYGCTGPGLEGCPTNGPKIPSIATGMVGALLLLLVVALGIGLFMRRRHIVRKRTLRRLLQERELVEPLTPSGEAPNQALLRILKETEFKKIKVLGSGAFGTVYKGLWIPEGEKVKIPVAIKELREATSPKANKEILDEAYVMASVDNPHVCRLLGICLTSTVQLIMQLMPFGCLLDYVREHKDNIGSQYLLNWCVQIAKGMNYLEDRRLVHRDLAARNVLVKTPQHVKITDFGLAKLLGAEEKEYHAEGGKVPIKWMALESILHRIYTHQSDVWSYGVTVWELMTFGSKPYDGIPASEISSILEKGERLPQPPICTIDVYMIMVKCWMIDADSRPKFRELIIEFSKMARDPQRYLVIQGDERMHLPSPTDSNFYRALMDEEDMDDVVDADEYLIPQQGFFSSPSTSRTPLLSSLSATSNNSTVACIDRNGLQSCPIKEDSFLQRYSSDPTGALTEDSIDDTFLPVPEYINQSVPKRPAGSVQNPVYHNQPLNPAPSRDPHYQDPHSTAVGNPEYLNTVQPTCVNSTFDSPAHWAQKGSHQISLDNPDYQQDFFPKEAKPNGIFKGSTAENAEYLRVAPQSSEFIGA
BTK, sequence (Q06187 whole entry): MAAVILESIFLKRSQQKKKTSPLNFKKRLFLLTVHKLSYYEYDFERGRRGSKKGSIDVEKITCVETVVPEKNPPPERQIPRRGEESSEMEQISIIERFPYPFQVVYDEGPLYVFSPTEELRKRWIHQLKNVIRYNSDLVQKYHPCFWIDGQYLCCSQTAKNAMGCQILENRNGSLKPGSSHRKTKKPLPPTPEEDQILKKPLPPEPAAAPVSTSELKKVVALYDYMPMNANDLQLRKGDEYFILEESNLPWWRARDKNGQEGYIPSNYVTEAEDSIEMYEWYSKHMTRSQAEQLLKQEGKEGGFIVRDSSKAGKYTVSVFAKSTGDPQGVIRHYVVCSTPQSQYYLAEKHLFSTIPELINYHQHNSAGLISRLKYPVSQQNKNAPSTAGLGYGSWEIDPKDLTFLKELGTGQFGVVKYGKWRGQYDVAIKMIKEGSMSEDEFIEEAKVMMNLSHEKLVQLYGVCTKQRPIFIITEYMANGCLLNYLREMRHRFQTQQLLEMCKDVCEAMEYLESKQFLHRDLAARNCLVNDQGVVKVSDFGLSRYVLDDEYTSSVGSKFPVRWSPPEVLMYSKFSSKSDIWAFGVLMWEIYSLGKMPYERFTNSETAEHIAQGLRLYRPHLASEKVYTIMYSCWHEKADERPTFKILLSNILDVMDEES

| SMILES | inhibition at 1 µM (EGFR T790M) [%] | inhibition at 1 µM (BTK) [%] |
| --- | --- | --- |
| C=CC(=O)Nc1cc(Nc2nc(-c3c[nH]c4ccccc34)c3sccc3n2)c(OC)cc1N(C)CCN(C)C [Compound 1, N-[2-[2-(dimethylamino)ethyl-methyl-amino]-5-[[4-(1H-indol-3-yl)thieno[3,2-d]pyrimidin-2-yl]amino]-4-methoxy-phenyl]prop-2-enamide] | > 50 | > 30 |
| C=CC(=O)Nc1cc(Nc2nc(-c3ccccc3)c3sccc3n2)c(OC)cc1N1CCN(C)CC1 [Compound 26, N-[4-methoxy-2-(4-methylpiperazin-1-yl)-5-[(4-phenylthieno[3,2-d]pyrimidin-2-yl)amino]phenyl]prop-2-enamide] | < 50 | > 30 |
| C=CC(=O)Nc1cc(NC2=NC(c3cccc(N(C)C)c3)C3SC=CC3=N2)c(OC)cc1N1CCN(C)CC1 (stereo not drawn) [Compound 6, N-[5-[[4-[3-(dimethylamino)phenyl]-4,4a-dihydrothieno[3,2-d]pyrimidin-2-yl]amino]-4-methoxy-2-(4-methylpiperazin-1-yl)phenyl]prop-2-enamide] | < 50 | > 30 |
| C=CC(=O)Nc1cc(Nc2nc(-c3c[nH]c4ccccc34)c3sccc3n2)c(OC)cc1N1CCC(N(C)C)CC1 [Compound 2, N-[2-[4-(dimethylamino)-1-piperidyl]-5-[[4-(1H-indol-3-yl)thieno[3,2-d]pyrimidin-2-yl]amino]-4-methoxy-phenyl]prop-2-enamide] | > 50 | > 30 |
| C=CC(=O)Nc1cc(Nc2nc(-c3cccc(NC)c3)c3sccc3n2)c(OC)cc1OCCN1CCOCC1 [Compound 35, N-[4-methoxy-5-[[4-[3-(methylamino)phenyl]thieno[3,2-d]pyrimidin-2-yl]amino]-2-(2-morpholinoethoxy)phenyl]prop-2-enamide] | > 50 | < 30 |
| C=CC(=O)Nc1cc(NC2=NC(c3cccc(N(C)C)c3)C3SC=CC3=N2)c(OC)cc1N1CCOCC1 (stereo not drawn) [Compound 10, N-[5-[[4-[3-(dimethylamino)phenyl]-4,4a-dihydrothieno[3,2-d]pyrimidin-2-yl]amino]-4-methoxy-2-morpholino-phenyl]prop-2-enamide] | > 50 | > 30 |
| C=CC(=O)Nc1cc(NC2=NC(c3cccc(NC(C)(C)C)c3)C3SC=CC3=N2)c(OC)cc1N(C)C (stereo not drawn) [Compound 5, N-[5-[[4-[3-(tert-butylamino)phenyl]-4,4a-dihydrothieno[3,2-d]pyrimidin-2-yl]amino]-2-(dimethylamino)-4-methoxy-phenyl]prop-2-enamide] | > 50 | > 30 |
| C=CC(=O)Nc1cc(Nc2nc(-c3ccc(NC)cc3)c3sccc3n2)c(OC)cc1N1CCOCC1 [Compound 37, N-[4-methoxy-5-[[4-[4-(methylamino)phenyl]thieno[3,2-d]pyrimidin-2-yl]amino]-2-morpholino-phenyl]prop-2-enamide] | > 50 | > 30 |
| C=CC(=O)Nc1cc(Nc2nc(-c3cccc(N(C)C)c3)c3sccc3n2)c(OC)cc1N1CCN(C)CC1 [Compound 24, N-[5-[[4-[3-(dimethylamino)phenyl]thieno[3,2-d]pyrimidin-2-yl]amino]-4-methoxy-2-(4-methylpiperazin-1-yl)phenyl]prop-2-enamide] | < 50 | > 30 |
| C=CC(=O)Nc1cc(NC2=NC(c3cccc(NC)c3)C3SC=CC3=N2)c(OC)cc1N(C)CCN1CCOCC1 (stereo not drawn) [Compound 9, N-[4-methoxy-5-[[4-[3-(methylamino)phenyl]-4,4a-dihydrothieno[3,2-d]pyrimidin-2-yl]amino]-2-[methyl(2-morpholinoethyl)amino]phenyl]prop-2-enamide] | < 50 | > 30 |
| C=CC(=O)Nc1cc(NC2=NC(c3cccc(OC)c3)C3C(=N2)C=CN3C)c(OC)cc1N1CCC(N(C)C)CC1 (stereo not drawn) [Compound 28, N-[2-[4-(dimethylamino)-1-piperidyl]-4-methoxy-5-[[4-(3-methoxyphenyl)-5-methyl-4,4a-dihydropyrrolo[3,2-d]pyrimidin-2-yl]amino]phenyl]prop-2-enamide] |  | < 30 |
| C=CC(=O)Nc1cc(NC2=NC(c3ccccc3)C3SC=CC3=N2)c(OC)cc1N1CCN(C)CC1 (stereo not drawn) [Compound 18, N-[4-methoxy-2-(4-methylpiperazin-1-yl)-5-[(4-phenyl-4,4a-dihydrothieno[3,2-d]pyrimidin-2-yl)amino]phenyl]prop-2-enamide] | > 50 | < 30 |
| C=CC(=O)Nc1cc(NC2=NC(c3cccc(NC(C)(C)C)c3)C3SC=CC3=N2)c(OC)cc1N1CCOCC1 (stereo not drawn) [Compound 11, N-[5-[[4-[3-(tert-butylamino)phenyl]-4,4a-dihydrothieno[3,2-d]pyrimidin-2-yl]amino]-4-methoxy-2-morpholino-phenyl]prop-2-enamide] |  | > 30 |
| C=CC(=O)Nc1cc(Nc2nc(-c3cn(C)c4ccccc34)c3sccc3n2)c(OC)cc1N1CCOCC1 [Compound 36, N-[4-methoxy-5-[[4-(1-methylindol-3-yl)thieno[3,2-d]pyrimidin-2-yl]amino]-2-morpholino-phenyl]prop-2-enamide] | < 50 | > 30 |
| C=CC(=O)Nc1cc(Nc2nc(-c3cn(C)c4ccccc34)c3sccc3n2)c(OC)cc1OCCN1CCOCC1 [Compound 34, N-[4-methoxy-5-[[4-(1-methylindol-3-yl)thieno[3,2-d]pyrimidin-2-yl]amino]-2-(2-morpholinoethoxy)phenyl]prop-2-enamide] |  | < 30 |
| C=CC(=O)Nc1cc(NC2=NC(c3cccc(NC)c3)C3SC=CC3=N2)c(OC)cc1OCCN1CCCCC1 (stereo not drawn) [Compound 15, N-[4-methoxy-5-[[4-[3-(methylamino)phenyl]-4,4a-dihydrothieno[3,2-d]pyrimidin-2-yl]amino]-2-[2-(1-piperidyl)ethoxy]phenyl]prop-2-enamide] |  | > 30 |

The remaining lines, values ahead:

| inhibition at 1 µM (EGFR T790M) [%] | inhibition at 1 µM (BTK) [%] | SMILES |
| --- | --- | --- |
| < 50 | < 30 | C=CC(=O)Nc1cc(Nc2nc(-c3ccccc3NC)c3ccsc3n2)c(OC)cc1N1CCN(C)CC1 [Compound 43, N-[4-methoxy-5-[[4-[2-(methylamino)phenyl]thieno[2,3-d]pyrimidin-2-yl]amino]-2-(4-methylpiperazin-1-yl)phenyl]prop-2-enamide] |
| < 50 | > 30 | C=CC(=O)Nc1cc(Nc2nc(-c3ccccc3N(C)C)c3ccsc3n2)c(OC)cc1N1CCN(C)CC1 [Compound 50, N-[5-[[4-[2-(dimethylamino)phenyl]thieno[2,3-d]pyrimidin-2-yl]amino]-4-methoxy-2-(4-methylpiperazin-1-yl)phenyl]prop-2-enamide] |
| > 50 | > 30 | C=CC(=O)Nc1cc(Nc2nc(-c3cccc(NC)c3)c3ccsc3n2)c(OC)cc1N(C)CC [Compound 41, N-[2-[ethyl(methyl)amino]-4-methoxy-5-[[4-[3-(methylamino)phenyl]thieno[2,3-d]pyrimidin-2-yl]amino]phenyl]prop-2-enamide] |
|  | < 30 | C=CC(=O)Nc1cc(Nc2nc(-c3ccccc3)c3ccsc3n2)c(OC)cc1N1CCN(C)CC1 [Compound 42, N-[4-methoxy-2-(4-methylpiperazin-1-yl)-5-[(4-phenylthieno[2,3-d]pyrimidin-2-yl)amino]phenyl]prop-2-enamide] |
| < 50 | < 30 | C=CC(=O)Nc1cc(N(C)c2nc(-c3cn(C)c4ccccc34)c3sccc3n2)c(OC)cc1N1CCOCC1 [Compound 52, N-[4-methoxy-5-[methyl-[4-(1-methylindol-3-yl)thieno[3,2-d]pyrimidin-2-yl]amino]-2-morpholino-phenyl]prop-2-enamide] |
|  | > 30 | C=CC(=O)Nc1cc(Nc2nc(-c3cccc4ccn(C)c34)c3sccc3n2)c(OC)cc1N1CCN(C)CC1 [Compound 44, N-[4-methoxy-5-[[4-(1-methylindol-7-yl)thieno[3,2-d]pyrimidin-2-yl]amino]-2-(4-methylpiperazin-1-yl)phenyl]prop-2-enamide] |
|  | > 30 | C=CC(=O)Nc1cc(Nc2nc(-c3ccn(C)c3)c3sccc3n2)c(OC)cc1N1CCN(C)CC1 [Compound 48, N-[4-methoxy-2-(4-methylpiperazin-1-yl)-5-[[4-(1-methylpyrrol-3-yl)thieno[3,2-d]pyrimidin-2-yl]amino]phenyl]prop-2-enamide] |
